Assay results as given in publication PMC9525708, “Mechanistic insight into the role of mevalonate kinase by a natural fatty acid-mediated killing of Leishmania donovani” (Scientific Reports, 2022).

Experiments:
[1] = target: T1, mevalonate kinase (MevK, LD-MevK) (Leishmania donovani, UniProt A0A3S7X459); test: pyruvate kinase-lactate dehydrogenase coupled assay, purified enzyme, […] compound; format: biochemical
T1 construct: gene LdCL_310011300; recombinant LD-MevK (pET28a, Ni-NTA purified, ~37 kDa)
T1 sequence (A0A3S7X459 1-329): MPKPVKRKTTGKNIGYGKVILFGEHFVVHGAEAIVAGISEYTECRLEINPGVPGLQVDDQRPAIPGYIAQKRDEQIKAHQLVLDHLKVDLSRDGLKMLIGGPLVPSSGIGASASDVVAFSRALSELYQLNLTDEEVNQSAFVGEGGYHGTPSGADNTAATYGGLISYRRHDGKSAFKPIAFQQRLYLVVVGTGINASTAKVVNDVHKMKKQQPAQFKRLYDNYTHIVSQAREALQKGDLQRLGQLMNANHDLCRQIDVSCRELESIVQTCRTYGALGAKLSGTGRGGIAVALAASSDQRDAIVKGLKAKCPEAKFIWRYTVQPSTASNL

[2] = target: T1, mevalonate kinase (MevK, LD-MevK); test: ITC (exothermic binding constant); also CD, and coupled PK-LDH assay with purified enzyme ([…] inhibition at […], competitive); details: read-out: ITC (exothermic binding constant); also CD, and coupled PK-LDH assay with purifi
[3] = target: T1, mevalonate kinase (MevK, LD-MevK); test: ITC (endothermic binding constant); also CD and enzyme kinetics (Km […])

| Structure (SMILES) | inhibition at 100 µM [1] | other results |
| --- | --- | --- |
| CCCCCCCC(=O)OC [1m-CAE, methyl octanoate] | ~65% | – |
| CCCCC(C)CCC(=O)O (stereo not shown) [4m-CA, 4-methyl octanoic acid] | ~65% | – |
| CCCCCCCC(=O)O [CA, Caprylic acid] | – | Kd [2]: 101 µM |
| C[C@@](O)(CCO)CC(=O)O [MEV, 3,5-Dihydroxy-3-methylpentanoic acid] | – | Kd [3]: 62.9 µM |
